Data set [1] is described as follows: Octanol-water partition coefficient (Kow). The format is physicochemical. The note with it: method of Leo et al. (1971), mean of 3 replicates.
For another data set, the system named is H. virescens. Put plainly: Effect of Trypan Blue in diet on rate of feces production, third instars. The format is in vivo, Heliothis virescens. The note with it: no Bt, confidence interval in brackets. The protocol: The blue diet used in the feeding disruption bioassay is an agar based insect meal containing 20 mg of Trypan Blue (Direct Blue 14; Matheson Coleman & Bell, Norwood, Ohio) per 100 ml of standard artificial diet, and containing different concentrations of CryIAc (MVP, Mycogen). Larvae feeding on this colored diet produced blue feces which were easily distinguished by observation from feces derived from other food sources. Assays were conducted in 1-ounce clear plastic cups (Solo Cup Company, Urbana, Ill.; approximately […] in diameter and ¾ inches high) fitted with white cardboard tops, which are routinely used for insect rearing in the inventors' laboratories. The clear plastic allowed for the observation of blue feces without opening the container.
The rate of feces production was examined for third instars of both the Wake (Bt susceptible) and YHD2 (Bt resistant) strains of H. virescens, to examine the effects of adding Trypan Blue to the standard artificial diet (the “Blue diet”). Wake budworms produced 30.6 ([…], 27.6-33.6) fecal pellets/hour/15 larvae on regular diet, and 25.5 (22.5-28.5) fecal pellets/hour/15 larvae on Trypan Blue diet. This difference, although small, was statistically significant as indicated by a significant diet×time interaction (F=6.05; df=1,24; P=0.0215) (PROC GLM procedure, SAS 1991). (Data not shown). […]

A further data set has as its system tobacco budworm neonates. The data set can be described thus: Larval feeding disruption assay for spinosad resistance. The format is in vivo, Heliothis virescens. The note with it: 1.6 μg active ingredient per ml diet, 24 h. The protocol:
The Bt feeding disruption assay described above was modified to monitor spinosad resistance in tobacco budworms. Trypan Blue (Direct Blue 14, Matheson Coleman and Bell, Norwood, Ohio) was blended into artificial diet (described above) at the rate of 20 mg of dye per 100 ml diet. This diet also was formulated with 1.6 μg of spinosad active ingredient per ml diet. The spinosad was added to the diet as part of a 44.2% aqueous formulation provided to us by Dr. Clyde Sorenson (NC State University, Raleigh, N.C.). […] The blue indicator diet with spinosad was dispensed at the rate of 100 μl per well into 8-well microtitre plate strips (Nalge Nunc Int., Napersville, Ill.). The wells were sealed with strip caps (Nunc). In order to reduce condensation within the wells, caps were punctured twice with a #3 insect pin.
Hv Franklin (spinosad susceptible) and spinosad resistant (selected) neonates of the tobacco budworm were used in all assays and were added to the assay diet within 24 h of hatch. Hv Franklin has been previously shown to be representative of other field collected H. virescens strains in spinosad toxicity. Selection of our laboratory colony of tobacco budworms which were originally collected from various locations in North Carolina, with technical spinosad applied topically each generation, produced insects that were highly resistant to spinosad.
Bioassays were conducted at 27±1° C. with a 14:10 L:D cycle, and the number of blue fecal pellets produced were counted after a 24 h exposure of the neonates to the diet. Results were taken from two replicates consisting of 24 insects per replicate.

[2] abbreviates: Hv spinosad selected (resistant) neonates.

As to `COC(=O)/C=C(\C)CC/C=C(\C)CC[C@H]1OC1(C)C` [juvenile hormone III], the “Octanol-water coefficient (Kow)” value in data set [1] is reported as 165.33. Regarding `Cc1cc(-c2ccc(/N=N/c3c(S(=O)(=O)O)cc4cc(S(=O)(=O)O)cc(N)c4c3O)c(C)c2)ccc1/N=N/c1c(S(=O)(=O)O)cc2cc(S(=O)(=O)O)cc(N)c2c1O` [Trypan Blue], the “rate of fecal pellet production on Trypan Blue diet” value in the data set with H. virescens (Wake third instars) is given as 25.5 (22.5-28.5) fecal pellets/hour/15 larvae; with H. virescens (YHD2 third instars), 34.9 (32.5-37.3) fecal pellets per hour per 15 larvae.

For the compound spinosad, in the data set on tobacco budworm neonates (setting [2]), the “percentage producing 3-5 pellets” value turned out to be 2.3% and the “percentage producing >2 fecal pellets” value is listed as 100%. In addition, in the data set with tobacco budworm neonates (susceptible Hv Franklin neonates), the “percentage producing 0-2 fecal pellets” value was 100%. `CC(C)CCC[C@@H](C)[C@H]1CC[C@H]2[C@@H]3CC=C4C[C@@H](O)CC[C@]4(C)[C@H]3CC[C@]12C` [cholesterol]: the “Octanol-water coefficient (Kow)” value in data set [1] came out at 0.46.

(Values after patent US6517856B1, “Insecticide resistance assay” (priority 1998, dated 2003).)
